Measured values published in patent publication US20250127700A1, “METHODS OF TREATING HYPERPIGMENTATION DISORDERS” (DermBiont, Inc., priority 2016, published 2025).
Entries after “also recorded” stand apart in the source; their conditions may differ.

Tests used:
[1] = system: C47 BI/6 mice; assay: Lightening of regrowing hair pigmentation in depilated mice, topical application; type: in vivo; conditions: 4% HQ; for Average gray value within the hair shafts, awl hairs / Average gray value within the hair shafts, zig-zag hairs: topical daily for 19 days after depilation, scale 0 (white) to 255 (black); for Average gray value within the hair shafts, awl hairs: 100 μm (0.0057%) Bis or ruboxistaurin in DMSO:propylene glycol, control value 181; for Maximum degree of hair lightening, zig-zag hairs below versus above the median gray value: zig-zag (small) hairs, FIG. 3, 0.0057% ruboxistaurin; for Color of zig-zag hairs compared to vehicle control (micrograph): FIG. 1, 100 μm Bis or ruboxistaurin; for Average gray value within the hair shafts, zig-zag hairs: 100 μm (0.0057%) Bis or ruboxistaurin, control 159
Excerpt: Briefly, […] mice aged 8-9 weeks (3 per group) were depilated to remove back hairs. These mice have black hair but no melanin pigmentation in the skin. Melanocytes in the hair follicle are responsible for the coat color. […] All compounds and vehicle were applied daily to the depilated areas for 19 days after depilation, i.e. throughout the period during which the new hair shafts are produced following depilation. Representative hairs of each type: guard, awl (large follicles deep in the dermis or subcutaneous follicle), auchene, and zig-zag (smaller follicles set in the more superficial dermis and the most numerous type of coat hairs), were randomly plucked (50/mouse) and photographed under a dissecting microscope. For separate analysis, 20 dark and light hairs from each mouse were subjected to computer assisted analysis of “gray value” for the pixels comprising the hair shaft.
Average gray value within the hair shafts were determined using ImageJ (NIH) software. The gray value is the sum of the gray values of all the pixels in the hair shaft divided by the number of pixels; and values range from 0 (white, no pigment) to 255 (black).
To determine the maximum degree of hair lightening (attributable to maximal drug exposure), an additional comparison was made between zig-zag hairs in each group that fell below versus above the median gray value.

[2] = biological target: PKC isoform η (Homo sapiens, UniProt P24723); conditions: Jirousek et al. J Med Chem 1996; cited from earlier work
[3] = biological target: PKC isoform γ (Homo sapiens, UniProt P05129); conditions: Jirousek et al. J Med Chem 1996; cited from earlier work
[4] = Solubility statement; type: physicochemical

Sequence of PKC isoform η (P24723 whole entry, canonical isoform): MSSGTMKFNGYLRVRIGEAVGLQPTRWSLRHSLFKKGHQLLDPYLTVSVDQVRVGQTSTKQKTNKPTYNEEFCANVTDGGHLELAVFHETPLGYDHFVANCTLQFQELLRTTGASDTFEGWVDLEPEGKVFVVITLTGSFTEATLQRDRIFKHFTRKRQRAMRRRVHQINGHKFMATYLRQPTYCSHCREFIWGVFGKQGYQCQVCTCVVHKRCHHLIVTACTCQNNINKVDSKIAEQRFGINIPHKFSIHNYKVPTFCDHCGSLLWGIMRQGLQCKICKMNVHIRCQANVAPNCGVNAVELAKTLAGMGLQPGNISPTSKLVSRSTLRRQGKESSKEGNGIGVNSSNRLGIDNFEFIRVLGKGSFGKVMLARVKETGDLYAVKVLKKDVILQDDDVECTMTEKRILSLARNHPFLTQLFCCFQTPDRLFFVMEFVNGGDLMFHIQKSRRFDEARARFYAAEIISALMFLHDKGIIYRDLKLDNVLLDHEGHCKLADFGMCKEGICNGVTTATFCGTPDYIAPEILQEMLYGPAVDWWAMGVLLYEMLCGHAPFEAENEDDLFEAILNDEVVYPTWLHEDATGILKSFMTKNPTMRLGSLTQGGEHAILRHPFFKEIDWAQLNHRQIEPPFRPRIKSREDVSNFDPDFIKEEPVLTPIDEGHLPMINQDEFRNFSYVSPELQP

Solubility [4]	SMILES	Average gray value within the hair shafts, awl hairs [1]	Maximum degree of hair lightening, zig-zag hairs below versus above the median gray value [1]	Color of zig-zag hairs compared to vehicle control (micrograph) [1]	Average gray value within the hair shafts, zig-zag hairs [1]	IC50 [2]	IC50 [3]
	Oc1ccc(O)cc1 [HQ, hydroquinone]	168	minimally lighter than control hairs	minimal color difference	156		
poorly soluble	CN(C)CC1CCn2cc(c3ccccc32)C2=C(C(=O)NC2=O)c2cn(c3ccccc23)CCO1 (centres unmarked) [ruboxistaurin, 9-[(dimethylamino)methyl]-6,7,10,11-tetrahydro-9H,18H-5,21:12,17-di(metheno)dibenzo[e,k]pyrrolo[3,4-h][1,2,13]oxadiazacyclohexadecine-18,20-dione]	155	lighter than both control and 4% HQ hairs	significantly lighter; also recorded: lightest	134	0.052 µM	0.3 µM
